The values below come from patent publication US20220126077A1, “Treatment for Dry Eyes” (priority 2020, published 2022).

The test system of this test is lacrimal glands. Put plainly: Experimentation with balm ingredients applied to the skin adjacent the eyes: tear production. The note with it: vapor released over time. It counts as in vivo. The source says: The formulation particularly preferred for the balm includes caffeine, in a medically useful amount, which, when applied to the skin adjacent the eyes, promotes blood circulation thereto. Additionally included is menthol in a medically useful amount, which is included to release a vapor over a period of time subsequent to application to the skin.
By adjacent to the eye is meant the skin area on the face which is below the lower eye lid, and between the end of the nose of the user and the outside end of the eye of the user which is closest to the ear on the same side as the eye being treated.
The plurality of active ingredients have been found, in experimentation when employed together, to have a beneficial synergistic effect which is well beyond the effect of the individual ingredients when employed in a balm by themselves. Currently, an active ingredient portion of the total volume of the balm mixture, includes a combination of active ingredients blended and combined to an active ingredient portion of the total balm mixture. This active ingredient portion of the total mixture ranges from 20 to 60 percent of the total volume of the balm mixture. […]

Take `CC1CCC(C(C)C)C(O)C1` (stereo not shown) [menthol, Menthol]: the “production of tears by the lacrimal glands” value was “stimulate the lacrimal glands to produce tears”.
